# Reference: patent publication US8691768B2, “Methods of determining delta opioid receptor subtypes” (The Regents of the University of California, priority 2008, dated 2014)
# Counter-ions that a name gives are not always drawn. Like-named read-outs stand apart in the source and are kept apart here.
# How the values were obtained:
# C57BL/6 mice [1] = test: Limited access 2-bottle choice drinking paradigm (water or 10% ethanol); type: in vivo; details: for ethanol consumption (drinking behavior): 5 mg/kg s.c. alone, 4 hour 2-bottle choice
# Experimental: Male C57BL/6 mice (20-23 g, Taconic) were individually housed in ventilated PLEXIGLAS® cages at ambient temperature (21° C.) in a room maintained on a reversed 12L:12D cycle (lights off at 10.00, lights on at 22.00). Food and water was provided ad libitum. The mice were given time to acclimatize to the individual housing conditions and reverse light cycle before the start of the experiments. Mice were weighed weekly. All procedures were pre-approved by the Gallo Center Institutional Animal Care and Use Committee and were in accordance with National Institutes of Health Guide for the Care and Use of Laboratory Animal.
# From Monday through Friday, mice were presented with a 2-bottle choice (water or 10% ethanol) for a 4 hour period (11.00-15.00) while in the dark cycle. Outside the 2-bottle choice period, all mice had unlimited access to water. All fluids were presented in 100-ml graduated glass cylinders with stainless-steel drinking spouts inserted through two grommets in front of the cage. Bottles were weighed to the nearest decigram (0.1 g) at the start and end of the 2-bottle choice period. The positions of the tubes containing water and ethanol were reversed daily to limit the effects of positional preference. Mice (9 per group) were injected with drugs subcutaneously (s.c.) on Friday 30 minutes before the start of the 2-bottle choice period.
# (§1) Ethanol and sucrose solutions were prepared in tap water using 95% (vol/vol) ethanol (Gold Shield Chemical Co., Hayward, Calif., USA). Naltriben mesylate (NTB), 7-benzylidenenaltrexone maleate (BNTX) were purchased from Tocris (MO, USA). TAN-67 dihydrobromide, naltrindole hydrochloride (NTI) and naltrexone hydrochloride (NTX) were from Sigma-Aldrich (MO, USA). All compounds were dissolved in saline, with the exception of BNTX and NTB, which were dissolved in 5% DMSO. All drugs were made up immediately prior to injection and were administered s.c. at a volume of 10 ml/kg.
# Baseline values were determined by taking the average of the consumption over the three days prior to injection. Statistical analysis was performed using Prism software (GraphPad, San Diego, Calif.). Significance was determined by means of one-way ANOVA or two-way ANOVA (repeated measures). A post-hoc Newman-Keuls (one-way ANOVA) or Bonferroni (two-way ANOVA) test was used when a significant overall effect was found (p<0.05). (*, p<0.05; **, p<0.01; ***, p<0.001).
# [2] = numerous animal studies; cited from earlier work
# [3] = clinical studies; cited from earlier work
# C57BL/6 mice [4] = test: Locomotor activity assay; type: in vivo; details: assayed 30 minutes after injection for 4 hours
# Experimental: To determine the effect of DOP-R subtype-selective drugs on mouse locomotion, the following locomotor activity assay was performed. On the testing day, mice (n=8) were habituated to the locomotor boxes for 30 minutes prior to the behavioral assay. Mice were injected s.c. with vehicle (saline or 5% DMSO), 25 mg/kg TAN-67 or 6 mg/kg NTB and placed back in the locomotor boxes. Locomotor activity was assayed 30 minutes after injection for 4 hours using Accuscan Digipro activity monitors (Accuscan, Columbus, Ohio). All mice were tested during their light phase between the hours of 9.00 and 14.00. Mice were placed into custom-made acrylic boxes that were 21×21 cm and 28 cm tall. One acrylic box was used per single Accuscan monitor (Accuscan). Activity monitors were themselves housed inside sound-attenuating chambers (Med-Associates, St Albans, Vt.) equipped with lights and fans, both of which were turned on during the testing session. To eliminate variability due to handling and novelty, on the two days before the testing day, mice were habituated to the locomotor boxes for 30 minutes injected with saline and placed in the locomotor box for an additional 30 minutes.
# C57BL/6 mice [5] = test: Sucrose intake (natural reward); details: mouse, in vivo
# Experimental: as §1
# [6] = tested on: chronically drinking rats; test: Drinking of chronically drinking rats after systemic administration; type: in vivo
# Experimental: (§2) Male Lewis rats (Harlan Laboratories, Indianapolis, Ind.) weighing between 275-300 g were individually housed in a temperature controlled colony room (21° C.) maintained on a reversed light/dark cycle 12L:12D cycle (lights off at 10 A.M., lights on at 10 P.M.). All experiments were performed during the dark portion of the cycle. Food and water was provided ad libitum.
# (§3) Ethanol was administered via a two-bottle continuous access, free-choice paradigm in which one bottle contained 10% ETOH (v/v) and the other bottle contained water. Sucrose was never added to the ethanol solution. The amount of ETOH and water consumed was measured at the same time daily (10 A.M.). […] Animals were weighed daily. Bottles were identical and their positions were counterbalanced and rotated daily. Change in drinking was calculated by subtracting the amount of drinking (mg/kg) on the day following treatment from the amount of drinking (mg/kg) on the day prior to treatment.
# [7] = target: delta opioid receptor (DOP-R) (rat) (UniProt P33533); test: cell-based or functional assay
# [8] = Rewarding effect of TAN-67 (Example 4, method not given); type: in vivo; details: therapeutically effective dose
# [9] = tested on: Lewis rats, ventral tegmental area (VTA); test: Ethanol self-administration (two-bottle continuous access) after microinjection into the VTA; type: in vivo; details: 0.2 mM microinjected into VTA
# Experimental: as §2, §3
# Animals were anesthetized and maintained on isoflurane (0.5 l/min) as needed for the duration of surgery. Animals were placed in a stereotaxic frame and were implanted with bilateral 26-gauge stainless steel chronic guide cannulas (Plastincs One, Roanoke, Va.) into the VTA (AP, −5.8; ML, ±0.5; DV, −7.0) based on the atlas of Paxinos and Watson (1997, The rat brain in sterotaxic coordinates, compact, Ed 3. San Diego: Academic). Cannulas were secured to the skull with dental cement. At the end of the surgical procedure, animals were treated with penicillin and topical antibiotics. A stainless steel dummy cannula (Plastics One) was inserted into each guide cannula and remained in place when the guide cannulas were not in use. Animals were allowed a 1 week recovery period before behavioral testing.
# Each injection was made using a 1 μl syringe (Hamilton, Reno, Nev.) attached to 20 cm of PE 50 tubing connected to a 33-gauge injection cannula (Plastics One). Microinjections of 0.5 μl volumes were given at a rate of 0.5 μl/min using a syringe pump (kd Scientific, Hollister, Mass.) into each side of the VTA, except for bicuculline injections, where 0.25 μl was injected per side. Injection cannulas extended 2 mm beyond guide cannulas and were left in place for 1 min following microinjections to minimize the backflow of drug solution. In addition to drug microinjections, physiological saline microinjections were made in every rat to measure the effect of the injection manipulation alone on drinking Drug injections were randomized and counterbalanced. Change in drinking due to drug microinjections was calculated by comparing both the previous day's consumption (“baseline”) and to saline injection. At the conclusion of the experiment, animals were anesthetized with pentobarbital and perfused intracardially through the ascending aorta with 0.1 M phosphate buffered saline followed by 10% formalin. Brains were sectioned coronally at 50 μm, mounted and stained with cresyl violet. Only animals with confirmed injection sites within the VTA were included. No behavioral differences were observed between animals with anterior compared with posterior cannula placements.
# For behavioral experiments, DPDPE (10mM; Sigma, St. Louis, Mo.), TIPP-ψ (5 μM; NIDA, Bethesda, Md.), Bicuculline (1 mM; Sigma), DAMGO (0.2 mM; Sigma), and CTOP (10 mM; Tocris, Ellisville, Mo.) were prepared in physiological saline for microinjection into the VTA. For electrophysiology, all drugs were applied by bath perfusion. Stock solutions were made and diluted in artificial CSF immediately before application. All chemicals were obtained from Sigma or Tocris except TIPP-ψ, which was acquired from NIDA.
# Results are presented as mean±SEM where appropriate. For behavioral data, drinking was analyzed using 24 h time points. Raw drinking data were used for paired Student's t test comparisons probing drug effects on drinking compared with baseline or saline injections, a more conservative comparison than analyzing normalized data. […]
# [10] = tested on: GABAA IPSCs in VTA neurons; test: Slice electrophysiology, whole-cell patch-clamp of GABAA IPSCs in VTA neurons; type: cell-based, Lewis rats; details: animals treated with 5 mg/kg morphine IP twice daily for 7 days
# DOR = test: Immunocytochemistry of DOR expression in VTA tissue; type: in vivo, Lewis rats; details: chronic treatment, once daily 0.5 mg/kg for 20 days
# Experimental: Materials and Methods: Male Lewis rats (250-300 g) were housed as in Example 8. In the first part of the experiment, rats received once daily injections of 0.5 mg/kg morphine for 20 days, after which they were sacrificed and the VTA tissue was examined for DOR expression. Standard immunocytochemical methods were used with a DOR-targeted antibody (SC9111) purchased from Santa Cruz Biotechnology, Inc. For electrophysiology experiments, rats received twice daily injections, 10 hours apart, of 5 mg/kg morphine IP for 7 days.
# Sequence of delta opioid receptor (DOP-R) (rat) (P33533 whole entry, stated change not applied): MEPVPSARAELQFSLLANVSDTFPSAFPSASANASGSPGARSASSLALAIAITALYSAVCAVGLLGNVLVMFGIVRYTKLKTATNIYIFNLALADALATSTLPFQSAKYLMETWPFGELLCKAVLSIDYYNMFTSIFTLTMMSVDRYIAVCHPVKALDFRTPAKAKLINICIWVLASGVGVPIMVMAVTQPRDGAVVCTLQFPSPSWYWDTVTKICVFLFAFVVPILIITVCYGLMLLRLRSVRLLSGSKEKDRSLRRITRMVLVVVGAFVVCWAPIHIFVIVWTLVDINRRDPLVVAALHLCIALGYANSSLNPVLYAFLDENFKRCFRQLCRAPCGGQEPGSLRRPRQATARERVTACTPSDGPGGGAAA
compound,measurement,setting,value
"O=C1CC[C@@]2(O)[C@H]3Cc4ccc(O)c5c4[C@@]2(CCN3CC2CC2)[C@H]1O5 [NTX, naltrexone hydrochloride]",ethanol consumption,"C57BL/6 mice [1]; 1.5 mg/kg s.c., 30 min before 4 hour 2-bottle choice",decrease in ethanol consumption
same,ethanol consumption (drinking behavior),C57BL/6 mice [1],only moderate effects
same,ethanol consumption,[2],decrease ethanol consumption
same,ethanol consumption,[3],decrease ethanol consumption
"Oc1ccc2c3c1O[C@H]1c4[nH]c5ccccc5c4C[C@@]4(O)[C@@H](C2)N(CC2CC2)CC[C@]314 [NTI, naltrindole hydrochloride]",ethanol consumption,C57BL/6 mice [1]; 10 or 15 mg/kg s.c.,did not alter
same,ethanol preference,C57BL/6 mice [1]; 10 or 15 mg/kg s.c.,did not alter
Naltriben mesylate [NTB],ethanol consumption (drinking behavior),C57BL/6 mice [1],no effect
same,ethanol consumption,"C57BL/6 mice [1]; dose dependence, s.c.",dose dependently decreased
same,ethanol preference,"C57BL/6 mice [1]; dose dependence, s.c.",dose dependently decreased
same,locomotor activity compared to vehicle treated animals,C57BL/6 mice [4]; 6 mg/kg s.c.,did not show any significant difference
same,sucrose intake,C57BL/6 mice [5],"neither TAN-67 [F(1,16)=0.057, p=0.81] nor NTB [F(1,16)=0.62, p=0.44]had an affect"
"COC(=O)/C=C/C(=O)N[C@@H]1CC[C@@]2(O)[C@H]3Cc4ccc(O)c5c4[C@@]2(CCN3CC2CC2)[C@H]1O5 [beta-FNA, β-funaltrexamine]",drinking,[6],decrease their drinking
TIPP-ψ (peptide),"evoked IPSC amplitude, decrease from baseline, antagonist alone (n=3)",[7],6.8%
same,"spontaneous IPSC amplitude, decrease, antagonist alone (n=2)",[7],2.6%
same,"spontaneous IPSC frequency, decrease, antagonist alone (n=2)",[7],8.6%
"CN1CCC2(c3cccc(O)c3)Cc3nc4ccccc4cc3CC2C1 (stereo not drawn) [TAN-67, 2-methyl-4 alpha alpha-(3-hydroxyphenyl)-1,2,3,4,4a,5,12,12 alpha alpha-octahydro-quinolino[2,3,3,-g]isoquinoline]",ethanol consumption,C57BL/6 mice [1]; 12.5 mg/kg s.c. alone,no effect
same,ethanol consumption,"C57BL/6 mice [1]; dose dependence, s.c.",dose-dependent decrease
same,ethanol preference,"C57BL/6 mice [1]; dose dependence, s.c.",dose-dependent decrease
same,rewarding by itself,[8],not rewarding
same,locomotor activity compared to vehicle treated animals,C57BL/6 mice [4]; 25 mg/kg s.c.,did not show any significant difference
same,sucrose intake,C57BL/6 mice [5],"neither TAN-67 [F(1,16)=0.057, p=0.81] nor NTB [F(1,16)=0.62, p=0.44]had an affect"
"(2-D-penicillamine, 5-D-penicillamine)-enkephalin (DPDPE) (peptide)",saturating dose for inhibition of evoked IPSCs (dose-response in the presence of 1 µM CTAP),[7],1 µM
C[C@@H](NC(=O)[C@@H](N)Cc1ccc(O)cc1)C(=O)NCC(=O)N(C)[C@@H](Cc1ccccc1)C(=O)NCCO [DAMGO],drinking (EtOH),[9],did not affect drinking
CN1CC[C@]23c4c5ccc(O)c4O[C@H]2[C@@H](O)C=C[C@H]3[C@H]1C5 [morphine],electrically evoked GABA release on activating DOR1,[10],inhibits electrically evoked GABA release
same,DOR expression in the VTA,DOR,increases
